Results published in US4742172A, “Intermediates for synthesizing pharmaceutically active 3,7-diazabicyclo-(3,3,1)-nonane compounds” (Kali-Chemie Pharma GmbH, priority 1982, dated 1988).

How the values were obtained:
[1] = test system: aconitine-induced ventricular extrasystoles in rats; assay: Anti-arrhythmic activity, aconitine test in rats (method of Raschak); type: in vivo, male Wistar rats; details: for Change in time to occurrence of ES: vs vehicle control
Experimental: When administering aconitine to rats by continuous intravenous infusion, there are observed in the electrocardiogram considerable disturbances in the heartbeat, such as, for instance, ventricular extrasystoles. The tested animals were male Wistar rats of the weight class between 250 g. and 350 g. The influence of an active compound according to the present invention upon such rats after an aconitine infusion was determined according to the method of Raschak as described by M. Raschak in Arzneim. Forsch. vol. 25, No. 4, pages 639-641 (1975). […] The active compound was administered intravenously in the form of an isotonic sodium chloride solution, i.e. the vehicle, in a dose of 6.0 μmole/kg. The dose administered is one twenthieth of the lethal dose (LD50) as determined on mice. […] After intravenous administration of the active compound to be tested and of the control solution, the aconitine solution was administered by infusion in an amount which was constant per time unit. The period of time was measured within which ventricular extrasystoles (ES) were observed. Said period of time, in minutes, is given in Table 2 as well as the difference in the period of time observed on administering the test compound and the control solution.
One of the active compounds tested is the compound of Example 3, No. 302, i.e., N,N-di-n-butyl-9,9-dimethyl-3,7-diaza bicyclo-(3,3,1)-nonane as described hereinafter. There are also given the results obtained by testing an equitoxic amount of the drug known under the trademark "Lidocain", i.e., 2-(diethylamino)-N-(2,6-dimethyl phenyl)-acetamide.
Anti-arrhythmic activity determined by the […]

[2] = test system: left atrium cordis of guinea pigs; assay: Functional refractory period and contractile force of the electrically stimulated left atrium cordis (paired stimulation, method of Govier); design: species or system female albino Pirbright-white guinea pigs; details: for EC (125%) / IC25: Cavia porcellus, administered as di-tartrate; for EC (125%): 0.3 h, 18 minutes after administration, read-out: FRP 125% (concentration prolonging functional refractory period to 125%); for IC25: left atrium, read-out: F 75% (concentration reducing contractile force to 75% of initial value); for quotient F 75%/FRP 125%: therapeutic index of the anti-arrhythmic action on the isolated organ
Text: 148, No. 1, pages 100-105 (1965). All anti-arrhythmic drugs which at present are used in therapy and which differ in their chemical structure are distinguished by being able to prolong the functional refractory period. In addition thereto said method permits to detect the effects of compounds on the contractile force of the myocardium. […] Said quotient supplies information regarding the therapeutic index of the anti-arrhythmic action of a compound on the isolated organ. See P. Greef in Verhandlung der Deutschen Gesellschaft fuer Kreislaufforschung vol. 35, pages 88-97 (1969).

anesthetized rats = assay: Effect on heart rate, systolic blood pressure and double product (myocardial oxygen consumption, method of Neill); type: in vivo; details: administered as ditartrate; for Change DP: vs initial value
Experimental: The influence of the active compounds according to the present invention on myocardial oxygen consumption has been investigated in animal models and determined according to the method of Neill as described by W. A. Neill, H. H. Levine, R. J. Wagman, and P. Gorlin in Circulation Research, Vol. 12, page 163 (1963). The blood circulation measurements which are required for these tests, namely, systolic blood pressure and heart rate, were determined according to the design of experimental procedure as described by G. Buschmann, W. Schumacher, R. Budden, and U. G. Kuehl in J. Cardiovasc. Pharmacol., Vol. 2, pages 777-795 (1980). As is evident from the following Table 1, the active compound reduces the product* of heart rate and systolic blood pressure. Thus, the tested compound reduces the consumption of oxygen to be supplied to the heart. This effect is observed in intravenous administration (i.v.) as well as on intraduodenal administration (i.d.) and is to be attributed to the action of the compound tested.
Effect upon heart rate (FRQ), systolic blood pressure (Ps)
and the double product (DP) determined on anesthetized rats

[3] = test system: right atrium cordis of guinea pigs; assay: Heart rate of the spontaneously beating, isolated right atrium cordis; design: species or system female albino Pirbright-white guinea pigs; details: Cavia porcellus, 20 min; 20 minutes after administration; administered as di-tartrate; read-out: FRQ 75% (concentration decreasing heart rate to 75% of initial value)
Experimental: The direct effect of the active compound on the heart rate (FPQ) was tested on the spontaneously beating, isolated right atrium cordis of female albino Pirbright-white guinea pigs (GP) of the weight class between 300 g. and 400 g. In Table 3 there is given, as FPQ 75%, the concentration in μmole/l. by which a decrease of the heart rate to 75% of the initial value is achieved 20 minutes after administration of the compound to be tested.

in vivo = details: mouse, po, peroral administration, mice

In the case of `CCN(CC)CC(=O)Nc1c(C)cccc1C` [Lidocain, 2-(diethylamino)-N-(2,6-dimethylphenyl)-acetamide, reference compound], the “Time to occurrence of ES (ventricular extrasystoles)” value ([1]; 10.0 μmole/kg i.v. (equitoxic amount), vehicle control 6.3 min) is reported as 6.6 min and the “Change in time to occurrence of ES” value ([1]; 10.0 μmole/kg i.v. (equitoxic amount)) is reported as “+5%”.
With `CCCCN1CC2CN(CCCC)CC(C1)C2(C)C` [Example 3, No. 302, N,N'-di-n-butyl-9,9-dimethyl-3,7-diaza bicyclo-(3,3,1)-nonane] the EC (125%) [2] was 1 µM, the IC25 [2] was 104 µM and the “quotient F 75%/FRP 125%” value [2] was 104. The “DP (double product of heart rate and systolic blood pressure)” value (anesthetized rats; 13.5 μmole/kg i.v., initial value 39) was 25 mm.Hg/min. × 1000, the “Ps (systolic blood pressure)” value (anesthetized rats; 13.5 μmole/kg i.v., initial value 104) was 147 mm.Hg and the “FRQ (heart rate)” value (anesthetized rats; 13.5 μmole/kg i.v., initial value 372) was 174 min⁻¹. For the same molecule, the “Change DP” value (anesthetized rats; 13.5 μmole/kg i.v.) was -36%, the “DP (double product of heart rate and systolic blood pressure)” value (anesthetized rats; 100 μmole/kg i.d., initial value 41) was 30 mm.Hg/min. × 1000 and the “Ps (systolic blood pressure)” value (anesthetized rats; 100 μmole/kg i.d., initial value 101) was 125 mm.Hg. The “FRQ (heart rate)” value (anesthetized rats; 100 μmole/kg i.d., initial value 406) was 238 min⁻¹, the “Change DP” value (anesthetized rats; 100 μmole/kg i.d.) was -27% and the “Time to occurrence of ES (ventricular extrasystoles)” value ([1]; 6.0 μmole/kg i.v., vehicle control 6.7 min, administered as di-tartrate) was 8.2 min. For the same molecule, the “Change in time to occurrence of ES” value ([1]; 6.0 μmole/kg i.v., administered as di-tartrate) was “+23%”, the IC25 [3] was 3 µM and the LD50 (in vivo) was 1040 µmol/kg.
In the case of `CN1CC2CN(C)CC(C1)C2(C)C` [Comparative compound, N,N',9,9-tetramethyl diaza bicyclo-(3,3,1)-nonane, reference compound], the EC (125%) [2] is reported as 122 µM, the IC25 [2] is reported as ~215 µM and the “quotient F 75%/FRP 125%” value [2] is reported as “about 2”. It also gave an IC25 [3] of ~215 µM.
